# Source: PMC7044277 (Nature Communications, 2020)
# Assays:
# DRD3 F1063.28A = DRD3 F1063.28A (Homo sapiens, UniProt P35462, F106A); assay: biochemical; type: binding
# DRD3 = DRD3 (Homo sapiens, UniProt P35462); assay: Gαi/o-mediated cAMP inhibition (GloSensor); type: cell-based; details: DRD3, cAMP inhibition
# DRD3 wild-type = DRD3 wild-type (Homo sapiens, UniProt P35462); assay: Radioligand competition binding, [3H]-N-methylspiperone; details: DRD3 wild-type; read-out: pKi ± SEM (converted)
# Chain of DRD3 wild-type (P35462 whole entry): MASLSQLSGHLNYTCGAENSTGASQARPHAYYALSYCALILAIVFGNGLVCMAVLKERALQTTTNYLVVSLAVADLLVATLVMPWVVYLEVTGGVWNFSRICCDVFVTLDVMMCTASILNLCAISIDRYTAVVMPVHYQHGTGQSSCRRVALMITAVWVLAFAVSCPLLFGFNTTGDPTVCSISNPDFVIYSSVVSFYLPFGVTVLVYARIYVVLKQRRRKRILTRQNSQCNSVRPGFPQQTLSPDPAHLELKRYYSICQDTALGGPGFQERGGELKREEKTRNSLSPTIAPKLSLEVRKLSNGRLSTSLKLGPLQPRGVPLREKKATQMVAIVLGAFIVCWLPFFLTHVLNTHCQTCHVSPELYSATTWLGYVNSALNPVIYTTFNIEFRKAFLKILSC
# [1] = biological target: T1, DRD4 (D4.4 variant) wild-type (Homo sapiens, UniProt P21917); assay: as above; details: DRD4; [3H]-methylspiperone (0.8-1.0 nM); read-out: Ki
# T1 sequence (P21917 1-419): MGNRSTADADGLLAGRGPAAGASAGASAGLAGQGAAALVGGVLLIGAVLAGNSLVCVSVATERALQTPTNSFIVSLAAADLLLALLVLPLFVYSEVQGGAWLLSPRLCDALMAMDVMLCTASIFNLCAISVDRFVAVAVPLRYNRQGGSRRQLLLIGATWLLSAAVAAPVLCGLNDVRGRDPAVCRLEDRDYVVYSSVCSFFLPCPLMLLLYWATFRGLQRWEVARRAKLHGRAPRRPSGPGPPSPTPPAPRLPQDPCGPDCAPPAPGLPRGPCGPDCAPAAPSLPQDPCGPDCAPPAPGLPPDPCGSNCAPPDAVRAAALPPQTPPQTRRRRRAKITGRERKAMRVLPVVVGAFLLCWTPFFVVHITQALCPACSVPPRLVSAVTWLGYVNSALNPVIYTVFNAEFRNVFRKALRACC
# DRD2 F1103.28A = DRD2 F1103.28A (Homo sapiens, UniProt P14416, F110A); assay: Gαi/o-mediated cAMP inhibition (GloSensor), mutant; type: cell-based; parameters: expressed in transfected cells; host or cells: HEK293T (ATCC CRL-11268)
# Chain of DRD2 F1103.28A (P14416 whole entry F110A): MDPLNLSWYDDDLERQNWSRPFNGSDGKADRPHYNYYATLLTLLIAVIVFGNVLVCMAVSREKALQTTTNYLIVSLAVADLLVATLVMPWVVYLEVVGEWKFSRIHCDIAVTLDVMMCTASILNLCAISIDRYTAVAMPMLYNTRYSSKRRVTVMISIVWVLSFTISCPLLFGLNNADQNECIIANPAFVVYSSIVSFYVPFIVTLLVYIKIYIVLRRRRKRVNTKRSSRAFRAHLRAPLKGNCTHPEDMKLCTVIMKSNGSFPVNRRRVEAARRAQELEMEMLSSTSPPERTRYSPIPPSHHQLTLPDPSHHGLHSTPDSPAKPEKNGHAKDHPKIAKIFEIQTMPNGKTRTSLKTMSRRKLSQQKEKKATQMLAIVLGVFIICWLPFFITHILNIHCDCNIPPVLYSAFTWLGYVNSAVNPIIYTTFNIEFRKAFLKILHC
# DRD2 F1103.28L = biological target: T2, DRD2 F1103.28L (Homo sapiens, UniProt P14416, F110L); assay: β-arrestin2 recruitment (Tango), mutant; type: cell-based
# T2 construct: expressed in transfected cells; host or cells: HEK293T (ATCC CRL-11268)
# T2 sequence (P14416 whole entry F110L): as the sequence (P14416 whole entry F110A) above, with A110L counted along it
# [2] = read-out: Emax relative to quinpirole response
# Chain of DRD3 F1063.28A (P35462 whole entry F106A): as the sequence (P35462 whole entry) above, with F106A counted along it
# Chain of DRD3 (P35462 whole entry): as the sequence (P35462 whole entry) above
smiles,measurement,setting,value
CCOc1cccc2cc(C(C)NCC3(O)CCCCC3)oc12 (stereo not drawn) [O4LE6],Ki,DRD3 F1063.28A,460 nM
same,"affinity decreased, mutant vs wild type",DRD3 F1063.28A; DRD3 Phe106^3.28Ala vs wild-type DRD3,2.09 fold
same,EC50,"DRD3; agonist, read-out: EC50 ± SEM",5.09 ± 0.16 nM
same,Emax,DRD3; [2],62.4%
same,Ki,DRD3 wild-type,224 nM
same,Ki,[1],> 10000 nM
same,EC50,DRD2 F1103.28A,> 10000 nM
same,EC50,DRD2 F1103.28L,204 nM
same,Emax,DRD2 F1103.28L; [2],4.32%
